Experimental data taken from patent US20180064821A1, “SITE SPECIFIC CURCUMIN-POLYMER MOLECULAR COMPLEXES AND METHODS OF TREATING COLON DISEASES AND INFLAMMATION” (priority 2016, published 2018).
Like-named read-outs stand apart in the source and are kept apart here.

Columns and labels:
[1] = Aqueous stability of curcumin complexes; format: physicochemical; details: 37° C.
Method: At different time intervals (0, 1, 2, 4, 6, 8, 12, 16, 20, 24 h), the samples were collected, centrifuged (20,000 g) and the supernatant was passed through […] filter.

[2] = tested on: HT29 colo-rectal cancer cells; test: pH dependent cellular uptake by flow cytometry, HT29; format: cell-based, human
Method: (§1) Briefly, 2×10^5 cells were seeded in 24 well-plates and allowed to adhere for 24 h. […] After 4 h, the cells were washed with PBS, trypsinized, fixed using 4% paraformaldehyde (PFA) and stored at 4° C. until further analysis using flow cytometer. […] Sample acquisition was performed using BD Biosciences FACS LSR Fortessa and data analyzed using FlowJo software (FlowJo LLC).

[3] = tested on: HCT116 colo-rectal cancer cells; test: pH dependent cellular uptake by flow cytometry, HCT116; format: cell-based, human
Method: as §1

[4] = tested on: HT29 human colo-rectal cancer cells; test: MTT cell viability assay, HT29; format: cell-based; details: 48 h incubation
Method: (§2) Following 48 h of incubation, 0.5 mg/ml MTT solution was added to each well, and the cells were incubated for further 4 h at 37° C. After 4 h, 150 μl of DMSO was added to each well and incubated for 1 h at 37° C. to dissolve the formazan crystals. The absorbance was then measured at 570 nm with a reference wavelength of 650 nm using UV-visible spectrophotometer. The results are represented in terms of percentage inhibition of cell proliferation compared to that of vehicle control. The cellular viability was assessed as a percentage of the control by using the following equation.

[5] = tested on: HCT116 human colo-rectal cancer cells; test: MTT cell viability assay, HCT116; format: cell-based; details: 48 h incubation
Method: as §2

- initial curcumin present ([1]; SIF (pH 6.7-6.9) and pH 7.0 buffer with 10% methanol, 24 h): ~10%
- initial curcumin present ([1]; aqueous buffers with 10% methanol, within 2 h): ~30%
- IC50 ([4]; listed as Unformulated curcumin at pH 7.0, read-out: IC50 (mean ± SD) In HT29 Cells): > 80 µM
- IC50 ([4]; Homo sapiens, HT-29, 48 h, read-out: IC50 (mean ± SD) In HT29 Cells): 41.8 ± 1.86 µM
- IC50 ([5]; listed as Unformulated curcumin at pH 7.0, read-out: IC50 (mean ± SD) In HCT116 Cells): > 80 µM
- IC50 ([5]; listed as curcumin in DMSO, read-out: IC50 (mean ± SD) In HCT116 Cells): 18.4 ± 1.94 µM
SMILES: COc1cc(/C=C/C(=O)CC(=O)/C=C/c2ccc(O)c(OC)c2)ccc1O [Curcumin, (1E,6E)-1,7-bis(4-hydroxy-3-methoxyphenyl)-1,6-heptadiene-3,5-dione]
- Cellular uptake of curcumin, Mean fluorescence intensity ([2]; pH 5.5, 4 h): 2704 ± 221
- Cellular uptake of curcumin, Mean fluorescence intensity ([2]; pH 7.0, 4 h): 2429 ± 247
- Cellular uptake of curcumin, Mean fluorescence intensity ([3]; pH 5.5, 4 h): 2543 ± 72
- Cellular uptake of curcumin, Mean fluorescence intensity ([3]; pH 7.0, 4 h): 3514 ± 975
